Test results taken from patent US6043283A, “Tyramine compounds and their neuronal effects” (priority 1997, dated 2000).
pEC50, pIC50: −log10 of the molar value. “Also recorded” adds a separate entry of the source. Where a name gives a salt, the structure may show the parent alone. Read-outs that look alike come from different tables or passages of the source.

Columns and labels:
[1] = system: human microglia stimulated with S5; assay type: cell-based;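 note: drugs applied at 10 µM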
[2] = system: Aβ1-42-stimulated microglia; assay type: cell-based, rat
Source text: (§1) Briefly, hippocampal cells obtained from embryonic stage 18 rat fetuses were dispersed mechanically in the presence of 0.125% trypsin and plated onto poly-L-lysine coated glass coverslips in 24 well plates at 250,000 cells per well (resulting in adhering cell densities of about 1250 cells per mm^2) in chemically-defined N2 culture media containing 5% fetal bovine serum. Gradual reduction of serum began on day 10 in vitro with daily 1:1 volume replacements with chemically-defined media, until a final concentration of 0.6% serum was achieved. […] In order to eliminate microglia, cultures were exposed to saporin (sap; a ribosome-inactivating protein; Davis and Wiley, 1989) coupled to acetylated LDL (ac-LDL) at a concentration of 10 μg/ml for 12 hours. […] Cultures depleted of microglia were then exposed to test substances in the presence or absence of exogenous microglia (100,000 cells per culture). […] Controls included cultures without saporin-treatment, cultures without test substances, and cultures with test substances but lacking microglia.
(§2) On day 14 of culture, immediately following saporin treatment, test substances were added to the hippocampal cultures. Synthetic peptide were supplied as 1 mM stock solutions in 0.1 M phosphate buffered saline, pH 7.2, stored for at least 1 week at 4° C. before use. After 72 hours incubation, the cultures were fixed in 4% paraformaldehyde at room temperature for 18 hours and immuno-stained by overnight incubation with a mixture of anti-neurofilament antibodies (NF; SMI-311, 1:600; Stemberger Monoclonals, Inc.) plus anti-MAP-2 (Boehringer Mannheim, 184959; 1:600) at 4° C. in the presence of 2% horse serum and 0.3% triton X-100 to delineate both neuronal cell bodies and neurites. Astroglia were visualized using sheep anti-glial fibrillary acidic protein (GFAP, Sigma) as described by Giulian et al., 1989. Finally, to label all cell nuclei, the coverslips were exposed to 0.01% bisbenzimide (Hoechst 33258; Sigma) in PBS, pH 6.9, and rinsed in distilled water and mounted in glycerin. Immuno-labeled cells per field and nuclei per field were scored at 200X magnification using fluorescence microscopy. Data were expressed as % mean survival expressed in terms of parallel untreated control cultures after scoring at least 20 randomly selected fields for each of 3 coverslips.

[3] = system: NTox released by Aβ1-42-stimulated microglia (neuron killing); assay: cells; assay type: cell-based, rat; details: for neuroprotective activity (structure/function): Example 14
Source text: . Briefly, hippocampal cells obtained from embryonic stage 18 rat fetuses were dispersed mechanically in the presence of 0.125% trypsin and plated onto poly-L-lysine coated glass coverslips in 24 well plates at 250,000 cells per well (resulting in adhering cell densities of about 1250 cells per mm^2) in chemically-defined N2 culture media containing 5% fetal bovine serum. Gradual reduction of serum began on day 10 in vitro with daily 1:1 volume replacements with chemically-defined media, until a final concentration of 0.6% serum was achieved. […]; see FIG. 18). In order to eliminate microglia, cultures were exposed to saporin (sap; a ribosome-inactivating protein; Davis and Wiley, 1989) coupled to acetylated LDL (ac-LDL) at a concentration of 10 μg/ml for 12 hours. […] Cultures depleted of microglia were then exposed to test substances in the presence or absence of exogenous microglia (100,000 cells per culture). […]. Controls included cultures without saporin-treatment, cultures without test substances, and cultures with test substances but lacking microglia.
as §2
The procedures described above and by Giulian et al, 1996, provided for the identification of tyramine compounds as therapeutic agents for neurodegenerative diseases or disorders including, for example, Alzheimer's disease. Cells from the brain of fetal rats were grown in tissue cultures. Microglial populations within the cultures were controlled following the method described in Example 5 above. Known amounts of Aβ peptides coupled to microspheres were added to the culture. The Aβ spheres stimulated the microglia to release NTox, which in turn destroyed the neurons. The neurons in the cultures were monitored for survival by immuno-staining.
Generally, drug assays involve the addition of known concentrations of a test agent over a range of concentrations. After 72 hours, the experiment is stopped and the neurons are identified by immuno-staining. The data is expressed as % neuronal survival […]. Dose response curves are then used to estimate Effective Dose50 % (ED50) of neuroprotective agents. […].
In this experiment, about 65% of the neurons were destroyed by the Aβ-stimulated microglia. […] Other tyramine compounds, including tyrosine esters, were neuroprotective (FIG. 30).
Following the methods described herein, numerous compounds were examined to determine their neuroprotective activity. […]

NMDA receptor = assay: whole cell current elicited by NMDA in Xenopus oocytes injected with NMDA R1 and R2 subunit cRNAs; assay type: cell-based; details: for effect on current elicited by NMDA: FIG. 34
Source text: FIG. 34 is a graph shorting the % maximal current peak elicited by NMDA, octopamine and tyramine compounds in the presence of a given NMDA concentration. […].
The precise mechanism of NTox that leads to the destruction of neurons is only partially characterized. Based upon extensive testing with receptor antagonists, it has been discovered that two classes of neurotransmitter receptors are involved--the n-methyl D-aspartate (NMDA) class of […] receptors and the Muscarinic (M receptors) class of cholinergic receptors. […] […]. Further study to determine if tyramine compounds act upon the NMDA receptor itself involved expression of the NMDA receptor complex in Xenopus oocytes and measurement of ionic fluxes across the oocyte membrane that are elicited by NMDA. […] […]. […] Thus, tyramine compounds appear to have several actions, one of which is upon the NMDA receptor.

NTox = assay: protection of neurons against isolated NTox applied directly; assay type: cell-based; details: isolated NTox; FIGS. 13, 32
Source text: FIG. 32 is a graph showing the specificity of tyramine compounds to NTox. […].
Initial studies to characterize the neuroprotective effect of tyramine compounds employed microglia-neuron co-culture assays in the presence of Aβ or isolated senile plaques. Inhibition of neuron killing in […]--inhibition of microglial activation by Aβ or plaques; inhibition of NTox production and release by microglia; or inhibition of action of NTox upon neurons. […] Effective doses in the low nmolar range show the tyramine compounds to be very potent agents compared with low μmolar range of other neuroprotective drugs under development for neurological disorders.

[4] = system: rat microglia / hippocampal neurons; details: rat microglia, mostly 1 μmole/l
hippocampal neurons = assay type: cell-based, rat; details: absence of microglia
Source text: as §1, §2

[5] = system: plaque-stimulated microglia; assay: blocking of plaque-induced microglial neurotoxicity; assay type: cell-based, rat; details: FIG. 16C
rat microglia = assay: binding of Aβ-coupled microspheres to microglia; details: 4 hours at 37° C. (72 h in FIG. 23)
[6] = assay type: physicochemical; details: chemically defined culture media, 37° C.; Table 2
Source text: Solubility of peptides is described for chemicallydefined culture media a […]

microglia = assay: inhibition of SpheresAβ1-42 binding to microglia; design: species or system rat; details: 10 μmoles/l, 4 hours, 37° C.
Procedure: Spheresmal-BSA (which bind to scavenger receptors) or SpheresAβ1-42 were incubated with microglia for 4 hours following pre-treatment of cells with trypsin (5000 units/ml at 37° C. for 60 min followed by inactivation with soybean trypsin inhibitor), with heparinase (heparin lyase EC 4.2.2.7; two consecutive treatments each of 0.01 units/ml for 60 min), or with chondroitinase ABC (chondroitin ABC lyase EC 4.3.3.4; two consecutive treatments each of 0.02 units/ml for 60 min). […] Microglia mixed with hippocampal neurons were treated with combinations of β-D-xyloside (1 mm), heparinase (0.02 units/ml), or chondroitinase (0.04 units/ml) and then exposed to plaques.
Each well then received 250,000 SpheresAβ1-42 or Spheresmal-BSA in the presence or absence of Aβ peptides, GAGs, or scavenger receptor ligands. Binding assays were carried out at 37° C. for 4 hours after which coverslips were dipped 10 times in phosphate buffer and fixed with 4% buffered paraformaldehyde. Microsphere adherence to cells was scored at 200 magnification with phase/fluorescence microscopy. Data, expressed as % inhibition of sphere binding, was calculated from total number of spheres per field noted for control cultures receiving spheres only. Values are based upon at least 3 coverslips from 2 independent experiments. […] Washed spheres were resuspended in 0.2 M borate buffer (pH 8.5) in the presence of 300 μg Aβ or 400 μg BSA in 6% DMSO. After overnight mixing at room temperature, the spheres were washed extensively and blocked by 1 M glycine (pH 8.0) for 30 minutes.

human microglia = assay: induction of neuron-killing human microglia; assay type: cell-based; details: 1 μmole/liter synthetic peptides

Compound: CC(=N)NCCC[C@H](N)C(=O)O [L-NIO, L-N-5-(1-imino-ethyl)-ornithine hydrochloride]
- drug blockade of neuron killing, human microglia ([1]; hydrochloride): no reduction of microglia-mediated neuron killing; also recorded: No protective effects were observed
- drug blockade of neuron killing, rat microglia ([2]; hydrochloride): no reduction of microglia-mediated neuron killing; also recorded: No protective effects were observed

Compound: N[C@@H](CCC(=O)N[C@@H](CS)C(=O)NCC(=O)O)C(=O)O [glutathione]
- drug blockade of neuron killing, human microglia [1]: no reduction of microglia-mediated neuron killing; also recorded: did not block microglial killing of neurons
- drug blockade of neuron killing, rat microglia [2]: no reduction of microglia-mediated neuron killing; also recorded: did not block microglial killing of neurons

Compound: CC(C(O)c1ccc(O)cc1)N1CCC(Cc2ccccc2)CC1 (stereo not shown) [ifenprodil]
- drug blockade of neuron killing, human microglia [1]: blocked neuron death
- drug blockade of neuron killing, rat microglia [2]: prevented neuronal loss; also recorded: blocked neuron death

Compound: NCC(O)c1ccc(O)cc1 (stereo not shown) [octopamine]
- neuroprotective activity (structure/function) [3]: little or no neuroprotective activity
- effect on current elicited by NMDA (NMDA receptor): does not alter the current measured
- effect on current elicited by NMDA (NMDA receptor; listed as Octopamine): no effect

Compound: N[C@@H](Cc1ccc(O)cc1)C(=O)OCc1ccccc1 [tyrosine benzyl ester]
- neuroprotective activity (structure/function) [3]: enhance neuroprotective effects
- effect on current elicited by NMDA (NMDA receptor): inhibition of NMDA

Compound: CC(C)(C)OC(=O)[C@@H](N)Cc1ccc(O)cc1 [tyrosine t-butyl ester]
- neuroprotective effect ([3]; Aβ1-42-stimulated microglia): most potent neuroprotectant tested
- neuroprotective activity (structure/function) [3]: enhance neuroprotective effects
- pEC50 ([3]; Rattus norvegicus, Aβ-stimulated microglia, 72 h, FIG. 31, read-out: ED50 (neuroprotection)): 8.70
- inhibition of killing action of NTox applied to neurons (NTox): killing action of NTox is inhibited
- effect on NMDA-stimulated voltage change across oocyte membrane (NMDA receptor; 300 μM): blocked
- effect on current elicited by NMDA (NMDA receptor): inhibition of NMDA

Compound: Aβ1-43: small Aβ peptide (as printed)
- induction of neurotoxic microglia / neuron killing [4]: did not produce neurotoxicity
- direct neurotoxicity without microglia (hippocampal neurons): did not produce neurotoxicity

Compound: Aβ13-20: Aβ peptide residues 13-20 (HHQKLVFF; Amyloid-beta protein 42; UniProt P05067 684-691, looked up, fragment)
- blocking of plaque-induced microglial toxicity by peptides [5]: blocked plaque-induced toxicity in vitro
- pIC50 ([2]; read-out: ED50 (blocking of Aβ1-42 induced neurotoxicity), FIG. 16B): 6.60

Compound: Aβ17-42: Aβ peptide residues 17-42 (LVFFAEDVGSNKGAIIGLMVGGVVIA; Amyloid-beta protein 42; UniProt P05067 688-713, looked up, fragment)
- binding of peptide-coupled microspheres to microglia (rat microglia): neither binds to microglia nor elicits toxicity
- Solubility [6]: very insoluble

Compound: catalase
- drug blockade of neuron killing, human microglia [1]: no reduction of microglia-mediated neuron killing; also recorded: did not block microglial killing of neurons
- drug blockade of neuron killing, rat microglia [2]: no reduction of microglia-mediated neuron killing; also recorded: did not block microglial killing of neurons

Compound: rodent Aβ1-40: rodent Aβ1-40 (5Arg-Gly, 10Tyr-Phe, 13His-Arg) (DAEFGHDSGFEVRHQKLVFFAEDVGSNKGAIIGLMVGGVV; Amyloid-beta protein 40; UniProt P12023 672-711, looked up)
- inhibition of SpheresAβ1-42 binding by peptides (microglia): unable to block
- binding of peptide-coupled microspheres to microglia (rat microglia): little cell binding
- induction of neurotoxic human microglia (human microglia): inactive
- induction of neurotoxic microglia / neuron killing [4]: did not activate microglia
- induction of neurotoxic microglia / neuron killing ([4]; listed as Aβ1-40rodent): neither
- induction of neurotoxic microglia / neuron killing ([4]; listed as Rodent Aβ1-40): did not activate microglia
- induction of neurotoxic microglia / neuron killing ([4]; listed as rodent form of Aβ1-40): inactive

Compound: vitamin E
- drug blockade of neuron killing, human microglia [1]: no reduction of microglia-mediated neuron killing; also recorded: did not block microglial killing of neurons
- drug blockade of neuron killing, rat microglia [2]: no reduction of microglia-mediated neuron killing; also recorded: did not block microglial killing of neurons
